Reference: PMC6884575, “Suppression of FOXM1 activities and breast cancer growth in vitro and in vivo by a new class of compounds” (NPJ Breast Cancer, 2019)

Experiments:
MCF7 cells = assay: RNA-Seq gene regulation in MCF7 cells; type: cell-based, human
Protocol: For gene expression analysis, total RNA was extracted from cells using Trizol reagent and further cleaned using the Turbo DNase and RNAqueous kits (ThermoFisher). Cells were treated with Veh (0.1% EtOH), or with the compounds indicated for 9 h or 24 h. Once the sample quality and replicate reproducibility were verified, samples from each group were subjected to sequencing. RNA at a concentration of 100 ng/µl in nuclease-free water was used for library construction. cDNA libraries were prepared with the mRNA-TruSeq Kit (Illumina, Inc.). In brief, the poly-A containing mRNA was purified from total RNA, the RNA was fragmented, double-stranded cDNA was generated from fragmented RNA, and adapters were ligated to the ends.
The paired-end read data from the HiSeq 4000 were processed and analyzed through a series of steps. Base calling and de-multiplexing of samples within each lane were done with Casava 1.8.2. The RNA sequences were prepared with Illumina’s TruSeq Stranded mRNAseq Sample Prep kit. Reads were trimmed of adapters and low expression data using Trimmomatic version 0.38.[42] The STAR alignment tool version 2.5.3a was used to align the sequenced reads to the GRCh37 human genome from Ensembl.[43] Gene counts were calculated using subread version 1.5.2.[44],[45] The edgeR Bioconductor package in R was used for normalization and differential expression analysis. Default normalization methods were used, specifically trimmed mean of M values or TMM was used to calculate the normalized expression values. This method calculates the weighted trimmed mean of the log expression ratios in a gene-wise fashion.[46],[47] We considered genes with fold-change > 2 and p-value < 0.05 as statistically significant, differentially expressed.

FOXM1 [1] = molecular target: T1, FOXM1 (Homo sapiens, UniProt Q08050); assay: Intracellular localization of FOXM1 (immunofluorescence, nuclear/cytoplasmic fractionation); type: cell-based; design: endogenous in cells; host or cells: MDA-MB-231, MCF7; conditions: 24 h, Western blot of nuclear and cytoplasmic extracts
T1 sequence (Q08050 1-763): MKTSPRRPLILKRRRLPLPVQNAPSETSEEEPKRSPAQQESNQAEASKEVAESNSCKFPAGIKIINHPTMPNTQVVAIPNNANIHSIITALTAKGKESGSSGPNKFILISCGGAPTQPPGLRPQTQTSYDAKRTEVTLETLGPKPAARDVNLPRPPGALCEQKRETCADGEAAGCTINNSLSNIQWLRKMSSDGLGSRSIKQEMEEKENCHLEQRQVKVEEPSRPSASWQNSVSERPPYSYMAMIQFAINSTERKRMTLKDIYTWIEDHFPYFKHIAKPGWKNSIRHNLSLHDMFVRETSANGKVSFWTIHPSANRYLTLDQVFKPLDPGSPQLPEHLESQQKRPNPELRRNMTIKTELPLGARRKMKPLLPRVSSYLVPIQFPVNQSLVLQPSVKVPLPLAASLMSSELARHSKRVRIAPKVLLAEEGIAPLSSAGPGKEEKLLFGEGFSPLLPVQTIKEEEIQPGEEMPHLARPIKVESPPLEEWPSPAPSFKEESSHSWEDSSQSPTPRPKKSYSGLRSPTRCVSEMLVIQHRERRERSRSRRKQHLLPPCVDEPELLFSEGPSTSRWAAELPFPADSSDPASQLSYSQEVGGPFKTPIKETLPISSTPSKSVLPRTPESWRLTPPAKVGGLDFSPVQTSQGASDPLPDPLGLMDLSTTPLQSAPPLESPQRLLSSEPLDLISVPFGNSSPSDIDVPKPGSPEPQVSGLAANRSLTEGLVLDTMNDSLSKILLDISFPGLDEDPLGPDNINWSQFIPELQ
Protocol: In some cases, treatments with compound were done in the presence of the proteasome inhibitor MG132 (Calbiochem) as described in the figure legend. […] Band intensities were analyzed with Licor Odyssey 2.1 software. All blots shown together derive from the same experiment and were processed in parallel. Full uncropped images of blots are shown as supplementary figures in the Supplementary Information file. Molecular weight markers were Rainbow markers from GE Healthcare (38–225 kDa) or Precision Plus Dual Color Markers from Biorad (37–250 kDa).

[2] = Pharmacokinetics in mice after single s.c. or oral dose; type: in vivo, female CD1 mice; conditions: for AUC / Cmax / half-life: female, CD1, mouse, 40 mg/kg, single dose, plasma
Protocol: The pharmacokinetics of compounds were monitored after single dose administration into female CD1 mice (7–9 weeks of age) via s.c. injection or oral gavage, as described.[39] For s.c. injection, each compound was dissolved in DMSO and then mixed with corn oil for a total injection volume of 100 μL (10% DSMO + 90% corn oil) per mouse. For oral gavage, compounds were administered in a 200 µL formulation of 9/0.5/0.5/90 parts of PEG400/Tween80/Povidone/0.5% Carboxymethylcellulose in DI water. […] Compounds were quantified by LC-MS/MS at the University of Illinois Metabolomics Core Facility. The data were fitted to a non-compartment model.

[3] = system: MDA-MB-231 and MDA-MB-453 breast cancer cells; assay: Cell proliferation in triple negative MDA-MB-231 and MDA-MB-453 cells; type: cell-based; conditions: Homo sapiens, read-out: IC50 antiproliferative
Protocol: (§1) WST-1 assay (Roche, Basel, Switzerland) was used to quantify cell viability as described.[38] Absorbance was measured at 450 nm using a VICTOR X5 PerkinElmer 2030 Multilabel Plate Reader. All assays were performed in triplicate and analyzed using Graph Pad Prism 8.0.

[4] = system: human breast cancer cell lines (DT22, MCF7, T47D, BT474, MDA-MB-453, MDA-MB-468, MDA-MB-231); assay: Cell proliferation (WST-1) in panel of breast cancer cell lines; type: cell-based
Protocol: as §1

FOXM1 [5] = molecular target: T1, FOXM1; assay: tr-FRET competitive binding assay with Fl-NB-72 probe; design: we attached a terbium donor to purified, full length FOXM1 through a streptavidin-biotin linker; conditions: displacement of Fl-NB-72 (100 nM), tr-FRET
Protocol: Competitive binding assays of compound binding to FOXM1 by tr-FRET were done in FRET buffer (20 mM Tris, pH 7.5, 50 mM NaCl, 0.01% NP-40 detergent, 10% glycerol) with 0.3 mg/ml ovalbumin and 0.1 mM butylated hydroxy-anisole added fresh daily. Solutions of the protein, fluorescent probe and compound dilutions were prepared at 3× concentrations, the final dilution taking place as they were mixed together in equal portions on the microtiter plate.
Final concentrations were 10^−5 M to 10^−9 M, with the last point being buffer only, no compound. Fluorescein-NB-72 (Fl-NB- 72) was prepared at 1 mM in DMF and stored at −20 °C. It was diluted into FRET buffer to give 100 nM in the assay. Incubations were done in duplicate on black Molecular Devices 96-well microtiter plates. 5 μl of Fl-NB-72 and 5 μl of the compound dilutions, were mixed together on the plate. To this was added 5 µl biotin-FoxM1 and incubated in the dark at room temperature, for 1 h. […] To correct for background signals, biotin-FOXM1 was omitted, and diffusion-enhanced FRET incubations were done in duplicate on black Molecular Devices 96-well microtiter plates. Five microliter of Fl-NB-72 and 5 μl of the compound solutions were mixed together and then 5 µl of FRET buffer plus SaTb was added, mixed and incubated in the dark at room temperature, for 1 h. The tr-FRET signals measured as above were subtracted as a background from the first incubations that contained biotin-FOXM1. Graphs were prepared using Graph Pad/Prism 4.

For `Clc1ccc(C(=C2C3CC4CC(C3)CC2C4)c2ccc(OCCCCCCN3CCCC3)cc2)cc1` [NB-55], the “genes regulated that overlapped with NB-73 regulated genes” value (MCF7 cells; MCF7, 9 h, more than 2-fold, FDR < 0.05) was 72%, the “genes regulated more than 2-fold (Venn diagram)” value (MCF7 cells; MCF7, 9 h treatment, p < 0.05, FDI-6 20 µM) was 567 genes and the “intracellular localization of FOXM1” value (FOXM1 [1]) was “does not change the intracellular localization of FOXM1”. The “PK properties (half-lives and blood levels achieved)” value ([2]; after oral administration) was “good PK properties”, the “PK properties (half-lives and blood levels achieved)” value ([2]; after s.c. administration) was “good PK properties” and the AUC ([2]; oral) was 35.7 µM·h. It also gave a Cmax ([2]; oral) of 2380 nM, a half-life ([2]; oral) of 28.8 h and an AUC ([2]; sc) of 34.7 µM·h. It also gave a Cmax ([2]; sc) of 1200 nM, a half-life ([2]; sc) of 135 h and an IC50 [3] of 3000 to 5000 nM. The IC50 ([4]; Homo sapiens, breast cancer cell lines, read-out: IC50 for inhibition of proliferation) was 2000 to 10000 nM, the “reduced potency in suppression of cell proliferation” value ([4]; dose-response studies in cells in culture) was 5 fold and the IC50 (FOXM1 [5]) was 1240 nM.
